Patent US10626110B2, “Polymorph of pazopanib hydrochloride and preparation process thereof” (FORMOSA LABORATORIES, INC., priority 2018, dated 2020)
Counter-ions that a name gives are not always drawn. Like-named read-outs stand apart in the source and are kept apart here.

How the values were obtained:
[1] = Solubility analysis in 0.1 M HCl and phosphate buffer (pH 4.5 and pH 6.8); type: physicochemical
From the text: The solubility of Pazopanib HCl Form F and Pazopanib HCl Form A in 0.1 M HCl and phosphate buffer (pH4.5 and pH6.8) was examined in the present analysis.

[2] = Stability / storage (statement only, no method described); type: physicochemical; details: no data given

Compound	Solubility (descriptive term) ([1]; 0.1M HCl)	solubility ([1]; 0.1 M HCl, simulated gastric fluid, thermodynamic from solid, 0.1M HCl, read-out: Solubility)	Solubility (descriptive term) ([1]; Phosphate buffer, pH 4.5)	Solubility (descriptive term) ([1]; Phosphate buffer, pH 6.8)	Solubility compared with Pazopanib HCl Form A ([1]; 0.1M HCl)	solubility ([1]; 0.1M HCl, hydrochloride)	Stability [2]
Cc1ccc(Nc2nccc(N(C)c3ccc4c(C)n(C)nc4c3)n2)cc1S(N)(=O)=O [Pazopanib HCl Form A, Pazopanib hydrochloride]	Very slightly soluble	584 µg/mL	Practically insoluble	Practically insoluble			
Cc1ccc(Nc2nccc(N(C)c3ccc4c(C)n(C)nc4c3)n2)cc1S(N)(=O)=O [Pazopanib HCl Form F, Pazopanib hydrochloride]	Very slightly soluble		Practically insoluble	Practically insoluble	better solubility in 0.1 M HCl than Pazopanib HCl Form A	669 µg/mL	better stability, and can be stored for a long time
